Results reported in patent US20200131473A1, “METHOD OF GENERATING 2 CELL-LIKE STEM CELLS” (IFOM FONDAZIONE ISTITUTO FIRC DI ONCOLOGIA MOLECOLARE, priority 2017, published 2020).

How the values were obtained:
mESC lines E14 and R1 = assay: Whole gene expression profiling (microarray) of mESC lines E14 and R1; format: cell-based, mouse
Procedure: The quality of total RNA was first assessed using an Agilent Bioanalyzer 2100 (Agilent Technologies, Palo Alto, Calif.). Biotin-labeled cDNA targets were synthesized starting from 150 ng of total RNA. Double stranded cDNA synthesis and related cRNA was performed with GeneChip® WT Plus Kit (Affymetrix, Santa Clara, Calif.). With the same kit was synthesized the sense strand cDNA before to be fragmented and labeled. […] Each eukaryotic GeneChip® probe array contains probe sets for several B. subtilis genes that are absent in the samples analyzed (lys, phe, thr, and dap). This Poly-A RNA Control Kit contains in vitro synthesized, polyadenylated transcripts for these B. subtilis genes that are pre-mixed at staggered concentrations to allow GeneChip® probe array users to assess the overall success of the assay.
Hybridization was performed using the GeneAtlas™ Hybridization, Wash and Stain Kit. […] Targets were diluted in hybridization buffer at a concentration of 0.05 μg/ul, denatured at 99° C. for 5 minutes, incubated at 45° C. for 5 minutes and centrifuged at 5,000 rpm for 1 minute. The Array Strip is then moved to a hybridization tray, which contains the hybridization cocktails. A single Gene 2.1 PEG Array Strip is hybridized with four different biotin-labeled targets. Hybridizations were performed for 20 hours at 48° C. in the GeneAtlas™ Hybridization Station. The Array Strips were washed and stained in the GeneAtlas™ Personal Fluidics Station. At the end of this procedure the array strips were placed into the imaging tray, which contains the Array Holding buffer.
The array strips were imaged using the GeneAtlas™ Imaging Station. Affymetrix GeneAtlas™ Command Console software was used to acquire the Array Strip images and […].
The CAMERA gene set enrichment p-values were calculated using the limma package and the camera function 30.
In the GSVA based enrichment analysis, we used the MsigDB gene sets, and transformed the individual gene expression values into gene set expression values with the GSVA package 32. We calculated the gene set differential expression as in the gene level differential expression analysis, only skipping the RMA normalization step.

E14 mouse ESCs = assay: Drop-seq single cell transcriptional profiling of E14 ESCs; format: cell-based
Procedure: ESCs from CNTL, APH (6 μM) and APH-ATRi experimental conditions were resuspended in PBS-BSA and processed with a microfluidic device according to the DropSeq Laboratory Protocol V3.1 from McCarroll's Lab website [http://mccarrolllab.com/dropseq/l]. For each condition, 3 distinct aliquots of collected emulsion, each containing 4000 beads underwent reverse transcription (RT) and fragment library preparation using Illumina Nextera XT Library Prep Kit. A distinct barcode was used for each library to allow subsequent demultiplexing of sequencing reads. mRNA sequencing was performed using an Illumina HiSeq2000 instrument, library fragments were sequenced at 50 base pairs (bp) in PE mode. Sequencing reads were aligned to UCSC Mouse Reference Genome version mm10 using STAR (version 2.5.3a), and processed according to DropSeq Alignment Cookbook V1.2 to generate a digital expression matrix of STAMPs (cells) for each experimental condition, which was then furtherly analyzed in the RStudio environment (R version 3.3.3) using Seurat package V2.0 from Satija Lab [http://satijalab.org/seurat/]. Seven-hundred most expressed cells were selected in each condition; genes expressed in less than 3 cells and cells expressing less than 200 genes were pruned from the dataset. Data from CNTL and APH conditions (1399 cells) or CNTL, APH and APH-ATRi conditions (2096 cells) were merged to generate two datasets, which were log normalised and scaled. Expression mean and variance to mean ratio (Log VMR>0.5) were used to estimate data dispersion and select variable genes across the dataset. Respectively 2614 and 2768 genes (in the 2-conditions and 3-conditions datasets) were used in principal component analysis (PCA) to identify the appropriate number of components to include in data modeling. Top 15 components were selected to explain dataset complexity. A shared nearest neighbor (SNN) graph and smart local moving algorithm was used to perform cells clustering; t-SNE (t-stochastic neighbour embedding) analysis was used to reduce (PCA) dimensionality and generate plots of cells distribution.

Compound	downregulated genes (mESC lines E14 and R1; APH treatment, E14 and R1)	upregulated genes with more than two-fold changes (mESC lines E14 and R1; APH treatment, E14 and R1)	DEGs overlapping with totipotency specific genes (mESC lines E14 and R1; APH treatment, 43 out of 201, compared with published datasets)	two placenta-related gene categories (MSigDB gene-sets analysis) (mESC lines E14 and R1; APH vs CNTL)	small cell population (cluster 4, 2C-like) in single cell profiling (E14 mouse ESCs; E14 ESCs in LIF plus 2i, APH 6 μM)	APH induced 2C-like genes which reverted their expression level (mESC lines E14 and R1; 31 out of 43, inhibitor added after APH)	two placenta-related gene categories upon ATR inhibition (mESC lines E14 and R1; APH plus inhibitor)	DNA repair signaling pathway (geneset enrichment analysis) (mESC lines E14 and R1; inhibitor added after APH-induced replication stress)	number of APH-induced 2C-like gene expressing cells (Zscan4d+, Gm8300+) (E14 mouse ESCs; APH plus ATRi)	number of RS-induced cells in the newly emerging cluster (E14 mouse ESCs; APH plus ATRi)
C[C@@]1(CO)[C@H](O)CC[C@@]2(C)[C@H]1CC[C@H]1C[C@@H]3C[C@@]12CC[C@]3(O)CO [APH, aphidicolin]	21 genes	193 genes	17%	strong and highly significant enrichment	significantly increased					
CNCc1ccc(-c2cc(-c3nc(-c4ccc(S(=O)(=O)C(C)C)cc4)cnc3N)on2)cc1 [VE 822]						72%	robustly suppressed	robust silencing	marked reduction	significantly reduced
